# Counter-ions that a name gives are not always drawn. Like-named read-outs stand apart in the source and are kept apart here.
# System: venous thrombosis
# Assay: venous thrombosis test in the rat (venous stasis under hypercoagulation with factor Xa, Wessler technique)
# Format: in vivo
# Settings: Wistar male rats
# Description: The antithrombotic activity of the compounds according to the invention was studied in vivo in the rat by means of a test that reproduces a venous thrombosis.
# The venous thrombosis was induced according to the protocol described in Thromb. Haemost., 1992, 67(1), 176-179. The intravenous or oral activity was studied according to the following operating protocol:
# The experiments are performed on non-fasted Wistar male rats weighing 250 to 280 g, divided into groups of 10 animals each. The test products are administered either orally (tubage) dissolved or suspended in isotonic solution, or by intravenous injection dissolved in isotonic solution or in a PEG 400/water mixture. The concentration of the compounds is calculated so that the amount of solution absorbed is 2 ml/kg by oral administration and 1 ml/kg by intravenous injection. A thrombosis is induced at a time T (0.5, 2, 4 or 8 hours) after administration of the product, and the thrombus formed is removed and weighed. To induce this thrombosis, a venous stasis is created under hypercoagulation according to the technique described by WESSLER (J Applied Physiol., 1959, 943-946), the hypercoagulating agent used being a solution of activated factor X (Xa) having a concentration of 7.5 nKat/kg, supplied by Biogenic (Montpellier). The venous stasis is effected exactly 15 seconds after injection of the hypercoagulating agent. The activity of the test compounds was checked at different doses after they had been administered either orally (p.o.) or intravenously (i.v.). The thrombosis was induced 2 hours or 4 hours after oral administration of the compound and 2 hours after intravenous administration of the compound.
# [1] = Rattus norvegicus, po, 4 h, oral, thrombosis induced 4 h after administration, read-out: Activity % (percentage inhibition of thrombus formation)
# [2] = Rattus norvegicus, po, 2 h, oral, thrombosis induced 2 h after administration, read-out: Activity % (percentage inhibition of thrombus formation)
# [3] = Rattus norvegicus, iv, 2 h, intravenous, thrombosis induced 2 h after administration, read-out: Activity % (percentage inhibition of thrombus formation)
# [4] = intravenous, dose 2.5 mg/kg, thrombosis induced 2 h after administration
compound,measurement,setting,value
"Cc1ncccc1O[C@@H]1SC[C@@H](O)[C@H](O)[C@H]1O [Example 12, 2-Methyl-3-Pyridinyl 5-Thio-β-D-Xylopyranoside]",inhibition in vivo at 3 mg/kg,[1],52%
"CCCC(=O)O[C@@H]1[C@@H](OC(=O)CCC)[C@H](OC(=O)CCC)CS[C@H]1Oc1cccnc1 [Example 93, 3-Pyridinyl 2,3,4-Tri-O-Butanoyl-5-Thio-β-D-Xylopyranoside]",inhibition in vivo at 6 mg/kg,[2],81%
"O[C@@H]1[C@@H](O)[C@H](Oc2cccnc2Cl)SC[C@H]1O [Example 37, 2-Chloro-3-Pyridinyl 5-Thio-β-D-Xylopyranoside]",inhibition in vivo at 6 mg/kg,[2],96%
"CC(=O)O[C@@H]1[C@@H](OC(C)=O)[C@H](OC(C)=O)CS[C@H]1Oc1cccnc1 [Example 1A, 3-Pyridinyl 2,3,4-tri-O-acetyl-5-thio-β-D-Xylopyranoside Methanesulfonate]",inhibition in vivo at 4 mg/kg,[3],83%
same,inhibition in vivo at 6 mg/kg,[1],51%
"COC(=O)O[C@@H]1[C@@H](OC(=O)OC)[C@H](OC(=O)OC)CS[C@H]1Oc1cccnc1 [Example 31A, 3-Pyridinyl 2,3,4-Tris-O-(Methoxycarbonyl)-5-Thio-β-D-Xylopyranoside Hydrochloride]",inhibition in vivo at 5.6 mg/kg,"Rattus norvegicus, po, 4 h, oral, dose 5.6 mg/kg, thrombosis induced 4 h after administration, read-out: Activity % (percentage inhibition of thrombus formation)",63%
"O[C@@H]1[C@@H](O)[C@H](Oc2cncc(Cl)c2)SC[C@H]1O [Example 18, 5-Chloro-3-Pyridinyl 5-Thio-β-D-Xylopyranoside]",inhibition in vivo at 3 mg/kg,[1],46%
"Cl.O[C@@H]1[C@@H](O)[C@H](Oc2cccnc2)SC[C@H]1O [Example 2C, 3-Pyridinyl 5-Thio-β-D-Xylopyranoside Hydrochloride]",inhibition in vivo at 4 mg/kg,[3],95%
same,inhibition in vivo at 6 mg/kg,[1],55%
same,Activity % (percentage inhibition of thrombus formation),[4],72%
"O[C@@H]1[C@@H](O)[C@H](Oc2cccnc2)SC[C@H]1O [Example 2, 3-Pyridinyl 5-Thio-β-D-Xylopyranoside]",inhibition in vivo at 2.5 mg/kg,"Rattus norvegicus, iv, 2 h, intravenous, dose 2.5 mg/kg, thrombosis induced 2 h after administration, read-out: Activity % (percentage inhibition of thrombus formation)",72%
same,inhibition in vivo at 1.5 mg/kg,"Rattus norvegicus, po, 4 h, oral, dose 1.5 mg/kg, thrombosis induced 4 h after administration, read-out: Activity % (percentage inhibition of thrombus formation)",67%
same,inhibition in vivo at 3 mg/kg,[1],91%
"O[C@@H]1[C@@H](O)[C@H](Oc2ccc(C(F)(F)F)nc2)SC[C@H]1O [Example 41, 6-(Trifluoromethyl)-3-Pyridinyl 5-Thio-β-D-Xylopyranoside]",inhibition in vivo at 6 mg/kg,[2],97%
"COC(=O)O[C@@H]1[C@@H](OC(=O)OC)[C@H](OC(=O)OC)CS[C@H]1Oc1cccnc1 [Example 31B, 3-Pyridinyl 2,3,4-Tris-O-(Methoxycarbonyl)-5-Thio-β-D-Xylopyranoside Methanesulfonate]",inhibition in vivo at 5 mg/kg,[3],88%
same,inhibition in vivo at 8 mg/kg,"Rattus norvegicus, po, 4 h, oral, dose 8 mg/kg, thrombosis induced 4 h after administration, read-out: Activity % (percentage inhibition of thrombus formation)",94%
"CS(=O)(=O)O.O[C@@H]1[C@@H](O)[C@H](Oc2cccnc2)SC[C@H]1O [Example 2A, 3-Pyridinyl 5-Thio-β-D-Xylopyranoside Methanesulfonate]",inhibition in vivo at 5 mg/kg,[3],94%
same,inhibition in vivo at 4.2 mg/kg,"Rattus norvegicus, po, 2 h, oral, dose 4.2 mg/kg, thrombosis induced 2 h after administration, read-out: Activity % (percentage inhibition of thrombus formation)",96%
same,Activity % (percentage inhibition of thrombus formation),[4],68%
"O[C@@H]1[C@@H](O)[C@H](Oc2cncc(F)c2)SC[C@H]1O [Example 49, 5-Fluoro-3-Pyridinyl 5-Thio-β-D-Xylopyranoside]",inhibition in vivo at 6 mg/kg,[2],90%
"N#Cc1ncccc1O[C@@H]1SC[C@@H](O)[C@H](O)[C@H]1O [Example 20, 2-Cyano-3-Pyridinyl 5-Thio-β-D-Xylopyranoside]",inhibition in vivo at 3 mg/kg,[1],50%
"CC(=O)O[C@@H]1[C@@H](OC(C)=O)[C@H](OC(C)=O)CS[C@H]1Oc1cccnc1Cl [Example 36, 2-Chloro-3-Pyridinyl 2,3,4-Tri-O-Acetyl-5-Thio-β-D-Xylopyranoside]",inhibition in vivo at 6 mg/kg,[2],91%

# From patent US7470671B2, “Thioxylose compounds, preparation method thereof, pharmaceutical compositions containing same and use thereof in therapeutics” (Laboratoire Fournier, priority 2003, dated 2008)
